Test results from US7176163B1, “Pharmacological effect potentiators for pesticides” (Meija Seika Kaisha, Ltd., priority 2000, dated 2007).

Tests used:
[1] = system: cotyledon of cucumber (variety: Yotsuba); assay: Microbicide (Benomyl) absorption enhancement by spraying jasmonic acids; format: in vivo
Experimental: In the present test, Benlate (registered trademark, manufactured by DuPont Corp., containing 50% of Benomyl as the main component) was used as microbicide. As a test material, cotyledon of cucumber (variety: Yotsuba) was used and absorption amount of the microbicide (hereinafter, referred to as “Benomyl absorption amount”) was measured. To the cucumber on day 10 after the seeding was uniformly sprayed 0.22 ml per individual of 0.1% Benlate solution (0.05% Benomyl containing solution) that contains methyl jasmonate (hereinafeter, abbreviated as “MeJA”) or n-propyl (2-pentyl-3-oxocyclopentyl)acetate, also named n-propyldihydrojasmonic acid (hereinafter, abbreviated as “PDJ”) and the cucumber was placed in a glass-made chamber. MeJA or PDJ was mixed to make 0.001 ppm, 0.01 ppm, 0.1 ppm, 1.0 ppm, or 5.0 ppm based on the Benlate solution amount and applied simultaneously. After sealing the lid of the chamber, the cucumber was cultivated in an air-conditioned room. As a control, similarly Benlate-treated cucumber seedlings were placed in a separate chamber and cultivated.
After two days of cultivation, the cotyledons were cut off and the surfaces of them were washed carefully with a neutral detergent. The cotyledons were ground and extracted with heating. The treatment of extraction solution and quantitation of Benomyl were carried out by high performance liquid chromatography referring to the quantitation method of Benomyl in Residual Pesticide Standards Handbook (Kagaku Kogyo Nippo, 1995, pp843-845) using 2-methylbenzimidazolecarbamate, which is a metabolite of Benomyl, as an indicator. […] As will be apparent from Table 1, enhancement of the absorption of Benomyl by application of MeJA or PDJ was observed.
Tests on microbicide absorption enhancement were performed in the same manner as in Test Example 1 using the following compounds. Common names and abbreviations of each compound are shown in the brackets. The compounds were synthesized in the same manner as in the examples in Japanese Patent Application Laid-open No. Hei 11-140022. • 1. […] (dihydrojasmonic acid: DJA) • 2. allyl (2-pentyl-3-oxocyclopentyl)acetate (allyl dihydrojasmonate: ADJ) • 3. 2-pentenyl (2-pentyl-3-oxocyclopentyl)acetate (dihydrojasmonic acid-2-pentenyl: PEDJ) • 4. 3-butenyl (2-pentyl-3-oxocyclopentyl)acetate (dihydrojasmonic acid-3-butenyl: BEDJ) • 5. 3-butynyl (2-pentyl-3-oxocyclopentyl)acetate (butynyl dihydrojasmonate : BYDJ)
Each compound was mixed so that it occupies 0.01 ppm based on the Benlate solution and given at the same time. Extraction and quantitation were practiced by the methods described in Test Example 1. The results are shown as relative values of Benomyl absorption amount in each lot to that of control. As a result, as will be apparent from Table 6, enhancement of absorption of Benomyl was confirmed.

[2] = system: cucumber powdery mildew; assay: Powdery mildew preventive effect improvement by methyl jasmonate fumigation; format: in vivo, Sphaeheca fuliginea; settings: MeJA fumigation 25 μl/m^3 after 0.1% Benlate spraying; infection on day 3; control lot (no fumigation) = 100
Experimental: Cucumber seedlings were cultivated in the same manner as in Test Example 2 and uniformly sprayed with 0.22 ml per individual of 0.1% Benlate solution (0.05% Benomyl containing solution). Thereafter, MeJA fumigation was performed as follows. MeJA Stock solution was charged in an open Petri dish (φ60 mm) to 25 μl/m^3, which was placed in a glass-made chamber and then sealed. On day 3 after the initiation of the fumigation, cucumber powdery mildew was infected in the same manner as in Test Example 3 and powdery mildew plaque number was counted. […] The control lot means a lot in which no MeJA fumigation was performed. Thus, it was confirmed that MeJA fumigation further improved the powdery mildew preventive effect of Benomyl.

[3] = system: cucumber seedlings; assay: Benomyl absorption enhancement by fumigation of methyl jasmonate; format: in vivo; settings: MeJA fumigation 25 μl/m^3, natural diffusion in sealed chamber; seedlings sprayed with 0.1% Benlate solution
Experimental: MeJA was applied as follows. MeJA Stock solution was charged in an open Petri dish (φ60 mm) to 25 μl/m^3, which was placed in a glass-made chamber and then sealed and allowed to naturally diffuse. Then, cucumber seedlings uniformly sprayed with 0.22 ml per individual of 0.1% Benlate solution (0.05% Benomyl containing solution) were placed and sealed. This was cultivated in an air-conditioned room. As a control cucumber seedlings that had been similarly treated with Benlate but not fumigated with MeJA were placed in a separate chamber and cultivated. Extraction was made in the same manner as in Test Example 1 and comparative quantitation in comparison with control lot was made.

[4] = system: Poa annua; assay: Herbicidal effect enhancement by PDJ spraying; format: in vivo; settings: Herbie liquid diluted 1/1000 plus PDJ 0.01 ppm; sprayed 5 ml/15 individuals; dry weight of above-ground part after 2 weeks
Experimental: Seeds of Poa annua were sown on commercially available cultivation soil for raising seedlings and after about 2 weeks of cultivation, seedlings of about 6 cm in height were obtained. For each lots, tests were performed in 5 series each with 3 individuals. The herbicide used was Herbie liquid (registered trademark of Meiji Seika Kaisha Limited, 18% Bialaphos containing solution) diluted to 1/1000. PDJ was used as a pharmacological action enhancer and this was added in an amount of 0.01 ppm based on the liquid amount of the herbicide. Application to the plant body was performed by spraying in an amount of 5 ml/15 individuals. After 2 weeks from the application, the dry weight of above-ground part was measured and mortality was calculated in accordance with the following equation and the effect was compared. […] Wilting Mortality={1−(growth amount of applied lot/growth amount of non-applied lot)}×100

[5] = system: cucumber powdery mildew (Sphaeheca fuliginea); assay: Powdery mildew preventive effect improvement by PDJ spraying; format: in vivo; settings: infection 3 days after application, plaques counted after 10 days, control lot (Benlate without PDJ) = 100
Experimental: Cucumber seedlings were cultivated in the same manner as in Test Example 1 and uniformly sprayed with 0.22 ml per individual of 0.1% Benlate solution (0.05% Benomyl containing solution) mixed with PDJ in an amount of 0.01 ppm or 0.1 ppm based on the amount of Benlate solution. After 3 days from the application of Benlate solution, a spore suspension of cucumber powdery mildew (Sphaeheca fuliginea) prepared to 1.0×10^5 cells/ml was sprayed (0.2 ml per individual) on a first true leaf of each seedling and the seedlings were cultivated in a glass-made chamber. After 10 days, powdery mildew plagues were counted. […] Morbidity=(Average of powdery mildew plaque number on cucumber first true leaf in each treated lot)/(Average of powdery mildew plaque number on cucumber first true leaf in control lot)×100
Here, the control lot means a lot that is treated with a Benlate solution containing no PDJ. Thus, it was confirmed that PDJ spraying further increased the powdery mildew preventive effect of Benomyl.

[6] = Test Example 6: 0.01 ppm based on the Benlate solution, given at the same time
[7] = 0.001 ppm in 0.1% Benlate solution, sprayed simultaneously, cucumber cotyledons after two days
[8] = 0.01 ppm in 0.1% Benlate solution, sprayed simultaneously, cucumber cotyledons after two days
[9] = 0.1 ppm in 0.1% Benlate solution, sprayed simultaneously, cucumber cotyledons after two days
[10] = 1.0 ppm in 0.1% Benlate solution, sprayed simultaneously, cucumber cotyledons after two days

SMILES | Relative value (%) of Benomyl absorption amount to that of control lot [1, 6] [%] | Relative value (%) of Benomyl absorption amount to that of control lot [1, 7] [%] | Relative value (%) of Benomyl absorption amount to that of control lot [1, 8] [%] | Relative value (%) of Benomyl absorption amount to that of control lot [1, 9] [%] | Relative value (%) of Benomyl absorption amount to that of control lot [1, 10] [%] | also measured
C#CCCOC(=O)CC1CCC(=O)C1CCCCC (stereo not drawn) [BYDJ, 3-butynyl (2-pentyl-3-oxocyclopentyl)acetate] | 130 | – | – | – | – | –
C=CCCOC(=O)CC1CCC(=O)C1CCCCC (stereo not drawn) [BEDJ, 3-butenyl (2-pentyl-3-oxocyclopentyl)acetate] | 155 | – | – | – | – | –
CCC=CCOC(=O)CC1CCC(=O)C1CCCCC (stereo not drawn) [PEDJ, 2-pentenyl (2-pentyl-3-oxocyclopentyl)acetate] | 130 | – | – | – | – | –
C=CCOC(=O)CC1CCC(=O)C1CCCCC (stereo not drawn) [ADJ, allyl (2-pentyl-3-oxocyclopentyl)acetate] | 145 | – | – | – | – | –
CC/C=C\CC1C(=O)CCC1CC(=O)OC (stereo not drawn) [MeJA] | – | 96 | 124 | 127 | 142 | Powdery Mildew Morbidity [2]: 76; Relative value (%) of Benomyl absorption amount to that of control lot [3]: 144%; Relative value (%) of Benomyl absorption amount to that of control lot ([1]; 5.0 ppm in 0.1% Benlate solution, sprayed simultaneously, cucumber cotyledons after two days): 113%
CCCCCC1C(=O)CCC1CC(=O)OCCC (stereo not drawn) [PDJ, n-propyl (2-pentyl-3-oxocyclopentyl)acetate] | – | 103 | 136 | 118 | 110 | Wilting Mortality [4]: 81.2%; Powdery Mildew Morbidity ([5]; PDJ 0.01 ppm in 0.1% Benlate solution): 70; Powdery Mildew Morbidity ([5]; PDJ 0.1 ppm in 0.1% Benlate solution): 88
